Results: patent US11001590B2, “Pyrazolopyrimidine derivatives” (BAYER ANIMAL HEALTH GMBH, priority 2016, dated 2021)

Columns and labels:
C. elegans Slo-1a = C. elegans Slo-1a (Caenorhabditis elegans, UniProt Q95V25); test: In vitro assay 1: C. elegans Slo-1a, action at a recombinant C. elegans CHO cell line (membrane potential measurement)
Protocol: In Vitro Assay 1: C. Eleqans Slo-La—Action at a Recombinant C. elegans Cell Line
Cells were cultured at 37° C. and 5% CO2 in MEMalpha with Gutamax I (Invitrogen, Nr.: 32571), supplemented with 10% (v/v) heat inactivated fetal bovine serum (Invitrogen, Nr.: 10500), G418 (1 mg/ml, Invitrogen, Nr.: 10131). Cells were detached using Accutase (Sigma, Nr.: A6964).
Membrane Potential Measurements
Laboratory compound testing was performed on 384-well microtiter plates (MTPs, Greiner, Nr.: 781092). 8000 cells/well were plated onto 384-well MTPs and cultured for 20 to 24 hours at 37° C. and 5% CO2. After removal of the cell culture medium, the cells were washed once with tyrode (150 mM NaCl, 0.3 mM KCl, 2 mM CaCl2, 1 mM MgCl2, 0.8 mM NaH2PO4, 5 mM Glucose, 28 mM Hepes, pH 7.4) and then loaded with the voltage sensitive dye of the Membrane Potential Assay Kit diluted in tyrode for 1 h at room temperature.
After starting the measurement of fluorescence using a FLIPR Tetra (Molecular Devices, Exc. 510-545 nm, Emm. 565-625 nm), test compounds were added followed by the addition of KCl tyrode (final assay concentration: 70 mM KCl, 2 mM CaCl2, 1 mM MgCl2, 0.8 mM NaH2PO4, 5 mM Glucose, 28 mM Hepes, pH 7.4, including the voltage sensitive dye). The measurement was completed after 7 minutes.

[1] = test system: Dirofilaria immitis microfilariae; test: In vitro assay 3: Dirofilaria immitis microfilariae (DIROIM L1), motility; details: 72 h, reduction of motility vs negative control, 72 h incubation
[2] = log P by HPLC on reversed phase columns (Method L0; [a] acidic, [b] neutral range)
Protocol: Calibration was done with straight-chain alkan-2-ones (with 3 to 16 carbon atoms) with known log P values (measurement of log P values using retention times with linear interpolation between successive alkanones). Lambda-max-values were determined using UV-spectra from 200 nm to 400 nm and the peak values of the chromatographic signals.

C. elegans Slo-1a, sequence (Q95V25 whole entry): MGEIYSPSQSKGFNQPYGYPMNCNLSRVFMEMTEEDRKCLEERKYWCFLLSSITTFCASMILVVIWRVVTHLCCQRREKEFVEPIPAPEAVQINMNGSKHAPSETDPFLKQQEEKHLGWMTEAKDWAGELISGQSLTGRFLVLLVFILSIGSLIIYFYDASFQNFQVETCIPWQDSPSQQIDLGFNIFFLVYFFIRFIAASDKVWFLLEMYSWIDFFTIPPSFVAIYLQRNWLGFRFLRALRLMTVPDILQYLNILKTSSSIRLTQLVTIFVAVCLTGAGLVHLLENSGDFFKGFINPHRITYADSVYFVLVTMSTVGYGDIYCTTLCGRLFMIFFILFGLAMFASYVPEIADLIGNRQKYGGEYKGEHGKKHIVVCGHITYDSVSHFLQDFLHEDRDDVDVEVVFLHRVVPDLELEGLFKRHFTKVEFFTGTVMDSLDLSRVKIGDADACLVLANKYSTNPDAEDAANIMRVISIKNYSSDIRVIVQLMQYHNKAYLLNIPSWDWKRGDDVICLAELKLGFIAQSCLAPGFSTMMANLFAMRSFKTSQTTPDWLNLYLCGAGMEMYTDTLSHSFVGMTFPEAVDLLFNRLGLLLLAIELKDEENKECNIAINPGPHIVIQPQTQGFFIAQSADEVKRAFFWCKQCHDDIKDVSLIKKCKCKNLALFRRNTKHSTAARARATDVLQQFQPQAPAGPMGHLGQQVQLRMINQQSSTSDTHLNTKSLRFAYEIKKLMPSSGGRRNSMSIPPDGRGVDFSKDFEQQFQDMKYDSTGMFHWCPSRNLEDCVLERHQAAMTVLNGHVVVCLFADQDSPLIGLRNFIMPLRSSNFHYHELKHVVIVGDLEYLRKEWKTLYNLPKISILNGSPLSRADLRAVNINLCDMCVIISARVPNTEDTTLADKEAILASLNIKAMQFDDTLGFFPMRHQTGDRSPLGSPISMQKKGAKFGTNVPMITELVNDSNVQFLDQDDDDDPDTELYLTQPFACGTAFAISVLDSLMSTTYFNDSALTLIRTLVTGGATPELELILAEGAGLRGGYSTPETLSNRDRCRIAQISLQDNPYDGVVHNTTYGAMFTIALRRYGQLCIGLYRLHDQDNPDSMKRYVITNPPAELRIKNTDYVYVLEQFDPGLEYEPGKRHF

SMILES	EC50 (C. elegans Slo-1a)	EC50 [1]	chromatographic logP [2]
Cc1nn2c(C(C)C)c(C(=O)N[C@H]3CCOc4ccccc43)cnc2c1-c1cnccc1Cl [Example 231]	15.8 nM	< 1 µg/mL	3.9
Cc1nn2c(C(C)C)c(C(=O)N[C@H]3CCOc4ccccc43)cnc2c1-c1ccc2c(c1)N(C)CC2 [Example 238]	158 nM	< 10 µg/mL	4.13
Cc1nn2c(C(C)C)c(C(=O)N[C@H]3CCOc4ccccc43)cnc2c1-c1ccc2c(c1)OCO2 [Example 239]	31.6 nM	< 10 µg/mL	4.08
Cc1nn2c(C(C)C)c(C(=O)N[C@H]3CCOc4ccccc43)cnc2c1-c1ccc2cc[nH]c2c1 [Example 243]	631 nM	< 10 µg/mL	3.76
Cc1nn2c(C(C)C)c(C(=O)N[C@H]3CCOc4ccccc43)cnc2c1-c1ccc2c(c1F)OCO2 [Example 245]	20 nM	< 1 µg/mL	4.18
COc1cccc(-c2c(C)nn3c(C(C)C)c(C(=O)N[C@H]4CCOc5ccccc54)cnc23)c1Cl [Example 247]	10 nM	< 1 µg/mL	4.19
Cc1nn2c(C(C)C)c(C(=O)N[C@H]3CCOc4ccccc43)cnc2c1-c1ccc2c(c1)NCC2 [Example 248]	50.1 nM	< 10 µg/mL	2.2
COc1cc(-c2c(C)nn3c(C(C)C)c(C(=O)N[C@H]4CCOc5ccccc54)cnc23)cc(OC)c1OC [Example 249]	158 nM	< 1 µg/mL	3.94
Cc1nn2c(C(C)C)c(C(=O)N[C@H]3CCOc4ccccc43)cnc2c1-c1ccc2c(c1)OC(F)(F)O2 [Example 251]	3.16 nM	< 0.1 µg/mL	5.03
Cc1nn2c(C(C)C)c(C(=O)N[C@H]3CCOc4ccccc43)cnc2c1-c1ccc2c(c1)CC(=O)N2 [Example 252]	1260 nM	< 10 µg/mL	2.87
Cc1nn2c(C(C)C)c(C(=O)N[C@H]3CCOc4ccccc43)cnc2c1-c1cc(O)c(F)c(F)c1 [Example 259]	15.8 nM	< 1 µg/mL	3.61
Cc1nn2c(C(C)C)c(C(=O)N[C@H]3CCOc4ccccc43)cnc2c1-c1ccccc1C#N [Example 264]	25.1 nM	< 1 µg/mL	3.68
Cc1nn2c(C(C)C)c(C(=O)N[C@H]3CCOc4ccccc43)cnc2c1-c1cccc2c1OCO2 [Example 266]	2 nM	< 1 µg/mL	4.02
Cc1nc2c(-c3cccc(Cl)c3Cl)c(C)nn2c(C)c1C(=O)N[C@H]1CCOc2ccccc21 [Example 267]	158 nM	< 10 µg/mL	3.86
Cc1nn2c(C(C)C)c(C(=O)N[C@H]3CCc4ccccc43)cnc2c1-c1cccc(S(C)(=O)=O)c1 [Example 288]	200 nM	< 10 µg/mL	3.57
Cc1nn2c(C(C)C)c(C(=O)N[C@H]3CCc4ccccc43)cnc2c1-c1cccnc1 [Example 297]	1260 nM	< 10 µg/mL	2.19
CC(=O)Nc1cccc(-c2c(C)nn3c(C(C)C)c(C(=O)N[C@H]4CCc5ccccc54)cnc23)c1 [Example 298]	1260 nM	< 10 µg/mL	3.3
Cc1nn2c(C3CC3)c(C(=O)N[C@H]3CCc4ccccc43)cnc2c1-c1cccc(C(F)(F)F)c1 [Example 304]	20 nM	< 1 µg/mL	4.55
Cc1nn2c(C(C)C)c(C(=O)N[C@H]3CCc4ccccc43)cnc2c1-c1cccc(NS(C)(=O)=O)c1 [Example 308]	1580 nM	< 10 µg/mL	3.44

SMILES	EC50 (C. elegans Slo-1a)	EC50 [1]	chromatographic logP [2]
Cc1nn2c(C(C)C)c(C(=O)N[C@H]3CCc4ccccc43)cnc2c1-c1cccc(OC(F)(F)F)c1 [Example 309]	31.6 nM	< 10 µg/mL	5.48
COc1cc(-c2c(C)nn3c(C(C)C)c(C(=O)N[C@H]4CCc5ccccc54)cnc23)cc(C(F)(F)F)c1 [Example 312]	25.1 nM	< 10 µg/mL	5.41
Cc1nn2c(C(C)C)c(C(=O)N[C@H]3CCc4ccccc43)cnc2c1-c1ccnc(Cl)c1 [Example 313]	158 nM	< 10 µg/mL	4.23
Cc1nn2c(C(C)C)c(C(=O)N[C@H]3CCc4ccccc43)cnc2c1-c1cncc(Cl)c1 [Example 314]	15.8 nM	< 0.1 µg/mL	4.19
Cc1nn2c(C(C)C)c(C(=O)N[C@H]3CCc4ccccc43)cnc2c1-c1cccc(NC(=O)C(F)(F)F)c1 [Example 315]	251 nM	< 1 µg/mL	4.28
Cc1nn2c(C(C)C)c(C(=O)N[C@H]3CCc4ccccc43)cnc2c1-c1cccc(OCC2CC2)c1 [Example 319]	25.1 nM	< 1 µg/mL	5.28
Cc1nn2c(C(C)C)c(C(=O)N[C@H]3CCc4ccccc43)cnc2c1-c1cccc(OCC#N)c1 [Example 320]	50.1 nM	< 10 µg/mL	4.09
Cc1nn2c(C(C)C)c(C(=O)N[C@H]3CCc4ccccc43)cnc2c1-c1cccc(OC(C)C)c1 [Example 321]	10 nM	< 1 µg/mL	5.28
Cc1nn2c(C(C)C)c(C(=O)N[C@H]3CCc4ccccc43)cnc2c1-c1cccc(N2CCCC2)c1 [Example 329]	25.1 nM	< 10 µg/mL	5.44
Cc1nn2c(C(C)C)c(C(=O)N[C@H]3CCc4ccccc43)cnc2c1-c1ccc(OC(F)(F)F)cc1 [Example 331]	251 nM	< 10 µg/mL	5.41
Cc1nn2c(C(C)C)c(C(=O)N[C@H]3CCc4ccccc43)cnc2c1-c1ccc(C(F)(F)F)cc1 [Example 332]	15.8 nM	< 1 µg/mL	5.32
Cc1nn2c(C(C)C)c(C(=O)N[C@H]3CCc4ccccc43)cnc2c1-c1ccc(C(F)F)cc1 [Example 334]	25.1 nM	< 10 µg/mL	4.63
COCc1ccc(-c2c(C)nn3c(C(C)C)c(C(=O)N[C@H]4CCc5ccccc54)cnc23)cc1 [Example 340]	39.8 nM	< 1 µg/mL	4.41
CNc1ccc(-c2c(C)nn3c(C(C)C)c(C(=O)N[C@H]4CCc5ccccc54)cnc23)cc1 [Example 341]	200 nM	< 10 µg/mL	3.32
Cc1nn2c(C(C)C)c(C(=O)N[C@H]3CCc4ccccc43)cnc2c1-c1ccc(N(C)C)cc1 [Example 342]	200 nM	< 10 µg/mL	3.91
Cc1nn2c(C(C)C)c(C(=O)N[C@H]3CCCc4ccccc43)cnc2c1-c1ccc(F)cc1 [Example 343]	20 nM	< 10 µg/mL	4.95
Cc1nn2c(C(C)C)c(C(=O)N[C@H]3CCCc4ccccc43)cnc2c1-c1cccc(OC(F)(F)F)c1 [Example 345]	12.6 nM	< 1 µg/mL	5.82
COc1cccc(-c2c(C)nn3c(C(C)C)c(C(=O)N[C@H]4CCCc5ccccc54)cnc23)c1 [Example 346]	12.6 nM	< 0.1 µg/mL	4.82
